≈ marks a conversion by molar mass, not a printed value.
Assays:
[1] = CoQ10 solubility at 37° C. in water and in placebo AQUA Q10 formulation; type: physicochemical
Description: CoQ10 solubility was measured at 37° C. in water as well as in a placebo AQUA Q10 formulation, i.e., Incromega™ E3322, Capmul™ CMC C-8, and Cremophor™ EL at weight ratio of 40/25/20.

[2] = CoQ10 solubility/concentration in non-aqueous formulations at elevated temperature; type: physicochemical; conditions: for solubility: organic solvent or mixture
Source text: While not intending to be bound to any theory, we posit that when a poorly water-soluble agent is incorporated into a porous carrier with narrow pores, it experiences strong geometric restrictions and large interfacial interactions with the porous matrix. […] Thus, absorbing a previously solubilized CoQ10 liquid formulation, for example, into the narrow pore channels of Fujicalin® (calcium hydrogen phosphate) inhibits re-crystallization and aggregation of CoQ10. This enables, to a large extent, even dispersion and distribution of pharmaceutically active forms of CoQ10 in solubilized form. After the Fujicalin® porous particulates dissolve in acidic gastric fluid, the SSS is released and the trapped SEF self-emulsifies in the fluid to form droplets of sufficiently small size, thereby facilitating absorption of CoQ10 cross the epithelial cells. Other porous particulates include silicon dioxide and magnesium aluminum metasilicate. Combinations may also be used.
CoQ10 in a concentration of >100 mg/ml in a non-aqueous formulation, preferably SEF, at a temperature above 25° C., preferably at or above 48° C. has been achieved.
The invention formulations solubilize CoQ10 at a concentration of >100 mg/ml at a temperature between 30° C. and 60° C., preferably not above 50° C. In addition, the nutrient/vitamin components readily dissolve in aqueous media, so that >75% of these components are released within an hour.

CoQ10 solubility in AQUA Q10 formulation relative to solubility in water [1]: over 400,000 times
solubility ([1]; placebo AQUA Q10 formulation, oil or lipid, placebo Incromega E3322/Capmul CMC C-8/Cremophor EL 40/25/20, read-out: CoQ10 solubility in AQUA Q10 formulation): 177 mg/mL (≈ 205 mM)
solubility ([1]; water, read-out: CoQ10 solubility in water): 0.0004 mg/mL (≈ 0.000463 mM)
solubility ([2]; invention formulations, temperature between 30° C. and 60° C., preferably not above 50° C., read-out: CoQ10 concentration solubilized by the invention formulations): > 100 mg/mL
solubility ([2]; non-aqueous formulations, elevated temperature close to its melting temperature (48° C.), read-out: solubility of CoQ10 in non-aqueous formulations): > 100 mg/mL
CoQ10 concentration in a non-aqueous formulation ([2]; preferably SEF, temperature above 25° C., preferably at or above 48° C.): > 100 mg/mL
SMILES: COC1=C(OC)C(=O)C(C/C=C(\C)CC/C=C(\C)CC/C=C(\C)CC/C=C(\C)CC/C=C(\C)CC/C=C(\C)CC/C=C(\C)CC/C=C(\C)CC/C=C(\C)CCC=C(C)C)=C(C)C1=O [CoQ10, Coenzyme Q10]

From patent US9005608B2, “Stabilized solubility-enhanced formulations for oral delivery” (Adds Pharmaceuticals LLC, priority 2009, dated 2015)
